Measurements published in US12234202B2, “Covalent inhibitors of coronavirus papain-like protease” (UT-Battelle, LLC, priority 2021, dated 2025).
Read-outs that look alike come from different tables or passages of the source.

What was measured:
SARS-CoV-2 PLpro [1] = biological target: T1, SARS-CoV-2 PLpro (Severe acute respiratory syndrome coronavirus 2, UniProt P0DTD1); test: biochemical; conditions: for kinact/KI / kinact/KI (M^−1 s^−1): second-order rate constant
SARS-CoV-2 PLpro [2] = biological target: T1, SARS-CoV-2 PLpro; test: biochemical; assay type: biochemical; conditions: after 30-minute incubation; Z-RLRGG-AMC
in vitro [3] = conditions: African green monkey
[4] = biological target: seven human DUBs, UCHL1, USP2, USP4, USP7, USP8, USP15, and USP30; test: Human deubiquitinase selectivity screening; assay type: biochemical; conditions: for IC50: UCHL1, USP2, USP4, USP7, USP8, USP15, USP30, read-out: IC50 (μM) values versus seven human deubiquitinases; for inhibition of human DUBs: concentrations up to 30 μM
in vitro [5] = conditions: African green monkey; remark: listed apart in the source
SARS-CoV-2 USA-WA1/2020 [6] = test: CPE assay in Vero E6 cells, neutral red staining, USA-WA1/2020; assay type: cell-based; conditions: Severe acute respiratory syndrome coronavirus 2, Vero C1008
SARS-CoV-2 USA-WA1/2020 [7] = test: microbe, parasite or virus in culture; assay type: cell-based; conditions: Severe acute respiratory syndrome coronavirus 2, Caco-2
in vitro [8] = conditions: human
[9] = tested on: SARS-CoV-2 Delta (B.1.617.2); test: microbe, parasite or virus in culture; assay type: cell-based; conditions: Severe acute respiratory syndrome coronavirus 2, Caco-2
Vero E6 cells [10] = conditions: 2 μM CP-100356, Delta row
in vitro [11] = conditions: human, microsomes
in vitro [12] = conditions: human, s9
Caco-2 cells = conditions: Delta row
[13] = tested on: SARS-CoV-2 Omicron (B.1.1.529); test: CPE assay in Vero E6 cells, neutral red staining, Omicron; assay type: cell-based; conditions: Severe acute respiratory syndrome coronavirus 2, Vero C1008
[14] = mouse, in vivo
[15] = tested on: SARS-CoV-2 Delta (B.1.617.2); test: CPE assay in Vero E6 cells, neutral red staining, Delta; assay type: cell-based; conditions: Severe acute respiratory syndrome coronavirus 2, Vero C1008
[16] = tested on: SARS-CoV-2 Omicron (B.1.1.529); test: microbe, parasite or virus in culture; assay type: cell-based; conditions: Severe acute respiratory syndrome coronavirus 2, Caco-2
Vero E6 cells [17] = tested on: Vero E6 cells
[18] = tested on: SARS-CoV-2 isolate USA-WA1/2020; test: microbe, parasite or virus in culture; assay type: cell-based
SARS-CoV-2 PLpro [19] = biological target: T1, SARS-CoV-2 PLpro; test: biochemical; conditions: Ub-rhodamine substrate
SARS-CoV-2 PLpro [20] = biological target: T1, SARS-CoV-2 PLpro; test: biochemical; conditions: ISG15-CHOP2 substrate
[21] = tested on: viral replication in Vero E6 cells; conditions: K. Ratia et al.; cited from earlier work
SARS-CoV PLpro = SARS-CoV PLpro (Severe acute respiratory syndrome coronavirus (SARS-CoV), UniProt P0C6X7); conditions: cited from earlier work
deISGylase USP18 = deISGylase USP18 (Homo sapiens (Human), UniProt Q9UMW8); conditions: K. Ratia et al.; cited from earlier work
HAUSP = HAUSP (Homo sapiens (Human), UniProt Q93009); conditions: K. Ratia et al.; cited from earlier work
cell viability = conditions: concentrations up to 50 μM in cell viability assays; cited from earlier work
[22] = biological target: ubiquitin C-terminal hydrolase UCH-L3 (Homo sapiens (Human), UniProt P15374); conditions: K. Ratia et al.; cited from earlier work
[23] = biological target: ubiquitin C-terminal hydrolase UCH-L1 (Homo sapiens (Human), UniProt P09936); conditions: K. Ratia et al.; cited from earlier work
[24] = time-dependent inhibition yes/no
[25] = cytopathic effect in SARS-CoV-2-infected Vero E6 cells, 48 h, MOI 0.1

| Compound | Time dep. (SARS-CoV-2 PLpro [1]; [24]) | IC50 (SARS-CoV-2 PLpro [2]) [µM] | CC50 at 48 h (in vitro [3]) [µM] | Cytotox. (<30 μM) (Vero E6 cells [17]) | kinact/KI (SARS-CoV-2 PLpro [1]) [M⁻¹ s⁻¹] | EC50 (μM) [18, 25] | also measured |
| --- | --- | --- | --- | --- | --- | --- | --- |
| COC(=O)CCc1ccccc1C(=O)N[C@H](C)c1cccc2ccccc12 [Compound 3, methyl (R)-3-(2-((1-(naphthalen-1-yl)ethyl)carbamoyl)phenyl)-propanoate] | no |  |  |  |  |  |  |
| C[C@@H](NC(=O)c1ccccc1CCC(=O)NN)c1cccc2ccccc12 [Compound 5, (R)-2-(3-hydrazineyl-3-oxopropyl)-N-(1-(naphthalen-1-yl)ethyl)benzamide] | no | 24 |  |  |  |  |  |
| COC(=O)/C=C/C(=O)NNC(=O)CCc1ccccc1C(=O)N[C@H](C)c1cccc2ccccc12 [Compound 7, methyl(R,E)-4-(2-(3-(2-((1-(naphthalen-1 yl)ethyl)carbamoyl)-phenyl)propanoyl)hydrazineyl)-4-oxobut-2-enoate] | yes |  | > 30 | no |  |  | IC50 [4]: > 30 µM; inhibition of human DUBs [4]: no inhibition was observed; CC50 (in vitro [5]): > 10 µM; EC50 (SARS-CoV-2 USA-WA1/2020 [6]): 0.068 µM; EC90 (SARS-CoV-2 USA-WA1/2020 [7]): 0.26 µM; CC50 (in vitro [8]): > 10 µM; EC90 [9]: > 10 µM; CC50 (Vero E6 cells [10]): > 10 µM; half-life at 1 μM (in vitro [11]): 50 min; half-life at 1 μM (in vitro [12]): 60 min; CC50 (Caco-2 cells): > 10 µM; EC50 [13]: 0.68 µM; exposure following IV dosing ([14]; iv, 3 mg/kg): Little exposure was observed; exposure following PO dosing ([14]; po, 10 mg/kg): no exposure recorded; EC50 [15]: 0.29 µM; EC90 [16]: 2.4 µM |
| COC(=O)/C=C/C(=O)NNC(=O)CCc1ccc(NC(C)=O)cc1C(=O)N[C@H](C)c1cccc2ccccc12 [Compound 8, methyl-(R,E)-4-(2-(3-(4-acetamido-2-((1-(naphthalen-1-yl)ethyl)carbamoyl)phenyl)propanoyl)hydrazineyl)-4-oxobut-2-enoate] |  |  |  | no | 14000 |  | kinact/KI (M^−1 s^−1) (SARS-CoV-2 PLpro [1]): 14,000 M^−1 s^−1 |
| C[C@@H](NC(=O)c1ccccc1CCC(=O)NNC(=O)CCl)c1cccc2ccccc12 [Compound 9, (R)-2-(3-(2-(2-chloroacetyl)hydrazineyl)-3-oxopropyl)-N-(1-(naphthalen-1-yl)ethyl)benzamide] | yes | 5.4 | > 30 | no | 100 |  | IC50 [4]: > 30 µM; inhibition of human DUBs [4]: no inhibition was observed; EC50 ([18]; Severe acute respiratory syndrome coronavirus 2, Vero C1008, cytopathic effect in SARS-CoV-2-infected Vero E6 cells, 48 h, MOI 0.1): 34 µM; half-life at 1 μM (in vitro [11]): 7 min; half-life at 1 μM (in vitro [12]): 3 min; IC50 (SARS-CoV-2 PLpro [19]): 1.96 µM; IC50 (SARS-CoV-2 PLpro [20]): 20.2 µM; kinact/KI (M^−1 s^−1) (SARS-CoV-2 PLpro [1]): 103 M⁻¹ s⁻¹ |
| CC(=O)Nc1ccc(CCC(=O)NNC(=O)CCl)c(C(=O)N[C@H](C)c2cccc3ccccc23)c1 [Compound 10, (R)-5-acetamido-2-(3-(2-(2-chloroacetyl)hydrazineyl)-3-oxopropyl)-N-(1-(naphthalen-1-yl)ethyl)benzamide] | yes | 4.4 |  | no | 120 | no CPE | cytoprotective effects ([18]; SARS-CoV-2-infected Vero E6 cells): insignificant cytoprotective effects; kinact/KI (M^−1 s^−1) (SARS-CoV-2 PLpro [1]): 120 M⁻¹ s⁻¹ |
| C[C@@H](NC(=O)c1ccccc1CCC(=O)NNC(=O)CC#N)c1cccc2ccccc12 [Compound 11, (R)-2-(3-(2-(2-cyanoacetyl)hydrazineyl)-3-oxopropyl)-N-(1-(naphthalen-1-yl)ethyl)benzamide] | not and no | 8 |  | no |  | no CPE |  |
| C#CC(=O)NNC(=O)CCc1ccccc1C(=O)N[C@H](C)c1cccc2ccccc12 [Compound 12, (R)—N-(1-(naphthalen-1-yl)ethyl)-2-(3-oxo-3-(2-propioloylhydrazineyl)propyl)benzamide] | Time-dependent inhibition was observed and yes | 0.098 | 1 to 5 | yes | 4800 | no CPE |  |
| C[C@@H](NC(=O)c1ccccc1CCC(=O)NNC(=O)C(C#N)=CC1CC1)c1cccc2ccccc12 [Compound 13, (R)-2-(3-(2-(2-cyano-3-cyclopropylacryloyl)hydrazineyl)-3-oxopropyl)-N-(1-(naphthalen-1-yl)ethyl)benzamide] | not and no | > 200 | 1 to 5 | yes |  | no CPE |  |
| Cc1ccccc1C(=O)N[C@H](C)c1cccc2ccccc12 [Compound 14, (R)-2-methyl-N-(1-(naphthalen-1-yl)ethyl)benzamide] |  | 100 |  | no |  | no CPE | EC50 [21]: 10 µM; half-life at 1 μM (in vitro [11]): 41 min; half-life at 1 μM (in vitro [12]): > 60 min |
| CC(=O)Nc1ccc(C)c(C(=O)N[C@H](C)c2cccc3ccccc23)c1 [Compound 15, (R)-5-acetamido-2-methyl-N-(1-(naphthalen-1-yl)ethyl)benzamide] |  | 6.2 |  | no |  | no CPE | EC50 [21]: 13.1 µM; IC50 (SARS-CoV PLpro): 2.6 µM |
| CCC(CC)COC(=O)[C@H](C)N[P@](=O)(OC[C@H]1O[C@@](C#N)(c2ccc3c(N)ncnn23)[C@H](O)[C@@H]1O)Oc1ccccc1 [remdesivir, reference compound] |  |  |  |  |  |  | EC50 ([18]; Severe acute respiratory syndrome coronavirus 2, Vero C1008, 48 h): 0.74 µM |
| GRL0617 |  |  |  |  |  |  | IC50 (deISGylase USP18): > 100 µM; IC50 (HAUSP): > 100 µM; cytotoxicity (cell viability): does not display cytotoxicity; IC50 [22]: > 100 µM; IC50 [23]: > 100 µM; Time dep. (SARS-CoV-2 PLpro [1]): no |
